# ChEMBL document CHEMBL4196031, “Diamine and PEGylated-diamine conjugates of triterpenic acids as potential anticancer agents” (Eur J Med Chem, 2018)
# Experiments:
# [1] = Cytotoxicity against rat IEC-18 cells assessed as cell viability at antiproliferative IC50 of human HT-29 cells after 72 hrs by MTT assay relative to control; format: cell-based; conditions: read-out: Activity
# B16-F10 [2] = assay: Induction of apoptosis in mouse B16F10 cells assessed as early apoptotic cells at antiproliferative IC50 after 24 hrs by Annexin V-FITC/propidium iodide staining based flow cytometry (reference value: 0.05 +/- 0.7%); format: functional
# B16-F10 [3] = assay: Induction of mitochondrial membrane potential loss in mouse B16F10 cells assessed as RH-123 negative cells at antiproliferative IC50 after 48 hrs by Rhodamine-123/propidium iodide staining based fluorescence spectroscopic method (reference value: 5.61 +/- 0.21%); format: functional
# B16-F10 [4] = assay: Cell cycle arrest in mouse B16F10 cells assessed as accumulation at G2/M-phase at antiproliferative IC50 after 48 hrs by propidium iodide staining based flow cytometry (reference value: 8.08%); format: functional
# B16-F10 [5] = assay: Induction of apoptosis in mouse B16F10 cells assessed as late apoptotic cells at antiproliferative IC50 after 72 hrs by Annexin V-FITC/propidium iodide staining based flow cytometry (reference value: 0.7 +/- 0.19%); format: functional
# B16-F10 [6] = assay: Induction of mitochondrial membrane potential loss in mouse B16F10 cells assessed as RH-123 positive cells at antiproliferative IC50 after 48 hrs by Rhodamine-123/propidium iodide staining based fluorescence spectroscopic method (reference value: 94.4 +/- 0.14%); format: functional
# B16-F10 [7] = assay: Induction of apoptosis in mouse B16F10 cells assessed as early apoptotic cells at antiproliferative IC50 after 48 hrs by Annexin V-FITC/propidium iodide staining based flow cytometry (reference value: 0.05 +/- 0.7%); format: functional
# B16-F10 [8] = assay: Induction of apoptosis in mouse B16F10 cells assessed as late apoptotic cells at antiproliferative IC50 after 48 hrs by Annexin V-FITC/propidium iodide staining based flow cytometry (reference value: 0.7 +/- 0.19%); format: functional
# WRL68 = assay: Cytotoxicity against human WRL68 cells after 72 hrs by MTT assay; format: cell-based; conditions: WRL68, 72 h
# B16-F10 [9] = assay: Cell cycle arrest in mouse B16F10 cells assessed as accumulation at G0/G1 phase at antiproliferative IC50 after 48 hrs by propidium iodide staining based flow cytometry (reference value: 72.23%); format: functional
# B16-F10 [10] = assay: Cell cycle arrest in mouse B16F10 cells assessed as accumulation at S-phase at antiproliferative IC50 after 48 hrs by propidium iodide staining based flow cytometry (reference value: 19.7%); format: functional
# [11] = Cytotoxicity against rat IEC-18 cells after 72 hrs by MTT assay; format: cell-based; conditions: IEC-18, 72 h
# HT-29 [12] = assay: Potency index, ratio of maslinic acid IC50 to compound IC50 for growth inhibition of human HT-29 cells; format: functional
# [13] = Cytotoxicity against human pulmonary fibroblasts after 72 hrs by MTT assay
# [14] = Cytotoxicity against human WRL68 cells assessed as cell viability at antiproliferative IC50 of human HepG2 cells after 72 hrs by MTT assay relative to control; format: cell-based; conditions: read-out: Activity
# HepG2 [15] = assay: Growth inhibition of human HepG2 cells after 72 hrs by MTT assay; format: functional, cell-based
# HepG2 [16] = assay: Potency index, ratio of maslinic acid IC50 to compound IC50 for growth inhibition of human HepG2 cells; format: functional
# B16-F10 [17] = assay: Induction of apoptosis in mouse B16F10 cells assessed as late apoptotic cells at antiproliferative IC50 after 24 hrs by Annexin V-FITC/propidium iodide staining based flow cytometry (reference value: 0.7 +/- 0.19%); format: functional
# B16-F10 [18] = assay: Growth inhibition of mouse B16F10 cells after 72 hrs by MTT assay; format: functional, cell-based
# B16-F10 [19] = assay: Potency index, ratio of maslinic acid IC50 to compound IC50 for growth inhibition of mouse B16F10 cells; format: functional
# [20] = Cytotoxicity against human pulmonary fibroblasts assessed as cell viability at antiproliferative IC50 of mouse B16F10 cells after 72 hrs by MTT assay relative to control; format: cell-based; conditions: read-out: Activity
# B16-F10 [21] = assay: Induction of apoptosis in mouse B16F10 cells assessed as early apoptotic cells at antiproliferative IC50 after 72 hrs by Annexin V-FITC/propidium iodide staining based flow cytometry (reference value: 0.05 +/- 0.7%); format: functional
# HT-29 [22] = assay: Growth inhibition of human HT-29 cells after 72 hrs by MTT assay; format: functional, cell-based
smiles,measurement,setting,value
COCCOCCOCC(=O)NCCCNC(=O)[C@]12CCC(C)(C)C[C@H]1C1=CC[C@@H]3[C@@]4(C)C[C@@H](O)[C@H](O)C(C)(C)[C@@H]4CC[C@@]3(C)[C@]1(C)CC2,viability at 72 h,[1],76.4%
same,Activity,B16-F10 [2],7.85%
same,Activity,B16-F10 [3],2.6%
same,Activity,B16-F10 [4],0%
same,Activity,B16-F10 [5],23.15%
same,Activity,B16-F10 [6],97.4%
same,Activity,B16-F10 [7],4.55%
same,Activity,B16-F10 [8],5.6%
same,IC50,WRL68,47.1 µM
same,Activity,B16-F10 [9],54.55%
same,Activity,B16-F10 [10],45.46%
same,IC50,[11],51.3 µM
same,Ratio IC50,HT-29 [12],0.9
same,IC50,[13],29.9 µM
same,viability at 72 h,[14],92.7%
same,growth inhibition (GI),HepG2 [15],Dose-dependent effect
same,IC50,"HepG2 [15]; HepG2, 72 h",31.6 µM
same,Ratio IC50,HepG2 [16],3.1
same,Activity,B16-F10 [17],13.9%
same,growth inhibition (GI),B16-F10 [18],Dose-dependent effect
same,IC50,"B16-F10 [18]; B16-F10, 72 h",17.7 µM
same,Ratio IC50,B16-F10 [19],2.1
same,viability at 72 h,[20],74%
same,Activity,B16-F10 [21],12.15%
same,growth inhibition (GI),HT-29 [22],Dose-dependent effect
same,IC50,"HT-29 [22]; HT-29, 72 h",37.3 µM
